# Data reported in patent US20070128217A1 (priority 2003, published 2007).
# How the values were obtained:
# [1] = test system: rabbit serum obtained by immunizing a rabbit with the SARS-CoV strain Frankfurt 1; assay type: binding; design: Binding of a rabbit serum to linear peptides / Binding of a rabbit serum to looped peptides / Rabbit serum linear peptides / Rabbit serum looped peptides / Binding of a rabbit serum to linear peptides of protein N of SARS-CoV Urbani (Rabbit serum linear peptides) / Binding of a rabbit serum to looped/cyclic peptides of protein N of SARS-CoV Urbani (Rabbit serum looped peptides): unit not given here
# [2] = test system: control sera (pooled serum of ten healthy LUMC hospital workers; commercial negative donor pooled serum from the Dutch bloodbank); assay type: binding, human
# [3] = test system: antibodies in sera from SARS patients (sera 1a, 1b, 2, 6, 37, 62, London, SARS-yellow, SARS-green); assay type: binding, human; design: Binding of serum 6 to linear peptides of protein X1 of SARS-CoV Urbani / Binding of serum 37 to linear peptides of protein X1 of SARS-CoV Urbani / Binding of serum 6 to looped/cyclic peptide (PEPSCAN-ELISA) / Binding of serum 37 to looped/cyclic peptide (PEPSCAN-ELISA) / Binding of serum 37 to looped/cyclic peptides of protein X1 of SARS-CoV Urbani / Binding of serum 6 to linear peptides of protein X2 / Binding of serum 37 to linear peptides of protein X2 / Binding of serum 37 to looped/cyclic peptides of protein X2 of SARS-CoV Urbani / Binding of serum 6 to linear peptides of protein M of SARS-CoV Urbani / Binding of serum 37 to linear peptides of protein M of SARS-CoV Urbani / Binding of serum 6 to looped/cyclic peptides of protein M of SARS-CoV Urbani / Binding of serum 37 to looped/cyclic peptides of protein M of SARS-CoV Urbani / Binding of serum 6 to linear peptides of protein X3 of SARS-CoV Urbani / Binding of serum 37 to linear peptides of protein X3 of SARS-CoV Urbani / Binding of serum 37 to looped/cyclic peptides of protein X3 of SARS-CoV Urbani / Binding of serum 6 to linear peptides of protein X4 of SARS-CoV Urbani / Binding of serum 37 to linear peptides of protein X4 of SARS-CoV Urbani / Binding of serum 37 to looped/cyclic peptides of protein X4 of SARS-CoV Urbani / Binding of serum 6 to linear peptides of protein X5 of SARS-CoV Urbani / Binding of serum 37 to linear peptides of protein X5 of SARS-CoV Urbani / Binding of serum 37 to looped/cyclic peptides of protein X5 of SARS-CoV Urbani / Binding of serum 6 to linear peptides of protein N of SARS-CoV Urbani / Binding of serum 37 to linear peptides of protein N of SARS-CoV Urbani / Binding of serum 6 to linear peptide (PEPSCAN-ELISA) / Binding of serum 1a to looped/cyclic peptides of protein N of SARS-CoV Urbani / Binding of serum 1b to looped/cyclic peptides of protein N of SARS-CoV Urbani / Binding of serum 2 to looped/cyclic peptides of protein N of SARS-CoV Urbani / Binding of serum 6 to looped/cyclic peptides of protein N of SARS-CoV Urbani / Binding of serum 37 to looped/cyclic peptides of protein N of SARS-CoV Urbani / Binding of serum 62 to looped/cyclic peptides of protein N of SARS-CoV Urbani / Binding of serum London to looped/cyclic peptides of protein N of SARS-CoV Urbani / Binding of serum SARS-green to looped/cyclic peptides of protein N of SARS-CoV Urbani: unit not given here
sequence,measurement,setting,value
AFVVFLLVTLAILTA,Binding of a rabbit serum to linear peptides,[1],0.7
same,Binding of a rabbit serum to looped peptides,[1],0.1
same,Binding of Control Serum Blood-Bank to Looped peptides,[2],0.8
same,Binding of Control serum Blood-bank to linear peptides,[2],0.5
same,Binding of Control serum LUMC to linear peptides,[2],0.4
same,Binding of Control serum LUMC to looped peptides,[2],0.5
same,Binding of serum 1a to linear peptides of protein E of SARS-CoV Urbani,[3],0.8
same,Binding of serum 1a to looped/cyclic peptides of protein E of SARS-CoV Urbani,[3],0.5
same,Binding of serum 1b to linear peptides of protein E of SARS-CoV Urbani,[3],0.6
same,Binding of serum 1b to looped/cyclic peptides of protein E of SARS-CoV Urbani,[3],0.4
same,Binding of serum 2 to linear peptides of protein E of SARS-CoV Urbani,[3],0.4
same,Binding of serum 2 to looped/cyclic peptides of protein E of SARS-CoV Urbani,[3],0.4
same,Binding of serum 6 to linear peptides of protein E of SARS-CoV Urbani,[3],0.6
same,Binding of serum 6 to looped/cyclic peptides of protein E of SARS-CoV Urbani,[3],0.5
same,Binding of serum 37 to linear peptides of protein E of SARS-CoV Urbani,[3],0.7
same,Binding of serum 37 to looped/cyclic peptides of protein E of SARS-CoV Urbani,[3],0.5
same,Binding of serum 62 to linear peptides of protein E of SARS-CoV Urbani,[3],0.7
same,Binding of serum 62 to looped/cyclic peptides of protein E of SARS-CoV Urbani,[3],0.6
same,Binding of serum London to linear peptides of protein E of SARS-CoV Urbani,[3],0.6
same,Binding of serum London to looped/cyclic peptides of protein E of SARS-CoV Urbani,[3],0.4
same,Binding of serum SARS-green to linear peptides of protein E of SARS-CoV Urbani,[3],0.4
same,Binding of serum SARS-green to looped/cyclic peptides of protein E of SARS-CoV Urbani,[3],0.5
same,Binding of serum SARS-yellow to linear peptides of protein E of SARS-CoV Urbani,[3],0.2
same,Binding of serum SARS-yellow to looped/cyclic peptides of protein E of SARS-CoV Urbani,[3],0.5
AIWNLDVIISSIVRQ,Rabbit serum linear peptides,[1],0.3
same,Rabbit serum looped peptides,[1],0.4
same,Binding of Control Serum Blood-Bank to Looped peptides of the protein X3 of SARS-CoV Urbani,[2],0.8
same,Binding of Control serum Blood-bank to linear peptides of the protein X3 of SARS-CoV Urbani,[2],0.7
same,Binding of Control serum LUMC to linear peptides of the protein X3 of SARS-CoV Urbani,[2],0.7
same,Binding of Control serum LUMC to looped peptides of the protein X3 of SARS-CoV Urbani,[2],0.7
same,Binding of serum 1a to linear peptides of protein X3 of SARS-CoV Urbani,[3],0.8
same,Binding of serum 1a to looped/cyclic peptides of protein X3 of SARS-CoV Urbani,[3],0.5
same,Binding of serum 1b to linear peptides of protein X3 of SARS-CoV Urbani,[3],0.4
same,Binding of serum 1b to looped/cyclic peptides of protein X3 of SARS-CoV Urbani,[3],0.5
same,Binding of serum 2 to linear peptides of protein X3 of SARS-CoV Urbani,[3],0.6
same,Binding of serum 2 to looped/cyclic peptides of protein X3 of SARS-CoV Urbani,[3],0.4
same,Binding of serum 6 to linear peptides of protein X3 of SARS-CoV Urbani,[3],0.5
same,Binding of serum 6 to looped/cyclic peptides of protein X3 of SARS-CoV Urbani,[3],0.4
same,Binding of serum 37 to linear peptides of protein X3 of SARS-CoV Urbani,[3],0.6
same,Binding of serum 37 to looped/cyclic peptides of protein X3 of SARS-CoV Urbani,[3],0.6
same,Binding of serum 62 to linear peptides of protein X3 of SARS-CoV Urbani,[3],0.6
same,Binding of serum 62 to looped/cyclic peptides of protein X3 of SARS-CoV Urbani,[3],0.5
same,Binding of serum London to linear peptides of protein X3 of SARS-CoV Urbani,[3],0.6
same,Binding of serum London to looped/cyclic peptides of protein X3 of SARS-CoV Urbani,[3],0.2
same,Binding of serum SARS-green to linear peptides of protein X3 of SARS-CoV Urbani,[3],0.3
same,Binding of serum SARS-green to looped/cyclic peptides of protein X3 of SARS-CoV Urbani,[3],0.4
same,Binding of serum SARS-yellow to linear peptides of protein X3 of SARS-CoV Urbani,[3],0.3
same,Binding of serum SARS-yellow to looped/cyclic peptides of protein X3 of SARS-CoV Urbani,[3],0.6
ALRLCAYCCNIVNVS,Binding of a rabbit serum to linear peptides,[1],0.7
same,Binding of a rabbit serum to looped peptides,[1],0.4
same,Binding of Control Serum Blood-Bank to Looped peptides,[2],1.1
same,Binding of Control serum Blood-bank to linear peptides,[2],0.8
same,Binding of Control serum LUMC to linear peptides,[2],0.5
same,Binding of Control serum LUMC to looped peptides,[2],0.8
same,Binding of serum 1a to linear peptides of protein E of SARS-CoV Urbani,[3],0.9
same,Binding of serum 1a to looped/cyclic peptides of protein E of SARS-CoV Urbani,[3],0.8
same,Binding of serum 1b to linear peptides of protein E of SARS-CoV Urbani,[3],0.8
same,Binding of serum 1b to looped/cyclic peptides of protein E of SARS-CoV Urbani,[3],0.8
same,Binding of serum 2 to linear peptides of protein E of SARS-CoV Urbani,[3],0.5
same,Binding of serum 2 to looped/cyclic peptides of protein E of SARS-CoV Urbani,[3],0.7
same,Binding of serum 6 to linear peptides of protein E of SARS-CoV Urbani,[3],0.7
same,Binding of serum 6 to looped/cyclic peptides of protein E of SARS-CoV Urbani,[3],0.7
same,Binding of serum 37 to linear peptides of protein E of SARS-CoV Urbani,[3],0.8
same,Binding of serum 37 to looped/cyclic peptides of protein E of SARS-CoV Urbani,[3],0.7
same,Binding of serum 62 to linear peptides of protein E of SARS-CoV Urbani,[3],0.7
same,Binding of serum 62 to looped/cyclic peptides of protein E of SARS-CoV Urbani,[3],0.8
same,Binding of serum London to linear peptides of protein E of SARS-CoV Urbani,[3],0.5
same,Binding of serum London to looped/cyclic peptides of protein E of SARS-CoV Urbani,[3],0.6
same,Binding of serum SARS-green to linear peptides of protein E of SARS-CoV Urbani,[3],0.5
same,Binding of serum SARS-green to looped/cyclic peptides of protein E of SARS-CoV Urbani,[3],0.6
same,Binding of serum SARS-yellow to linear peptides of protein E of SARS-CoV Urbani,[3],0.2
same,Binding of serum SARS-yellow to looped/cyclic peptides of protein E of SARS-CoV Urbani,[3],0.7
EETGTLIVNSVLLFL,Binding of a rabbit serum to linear peptides,[1],0.5
same,Binding of a rabbit serum to looped peptides,[1],0.0
same,Binding of Control Serum Blood-Bank to Looped peptides,[2],0.6
same,Binding of Control serum Blood-bank to linear peptides,[2],0.7
same,Binding of Control serum LUMC to linear peptides,[2],0.6
same,Binding of Control serum LUMC to looped peptides,[2],0.4
same,Binding of serum 1a to linear peptides of protein E of SARS-CoV Urbani,[3],0.8
same,Binding of serum 1a to looped/cyclic peptides of protein E of SARS-CoV Urbani,[3],0.4
same,Binding of serum 1b to linear peptides of protein E of SARS-CoV Urbani,[3],0.7
same,Binding of serum 1b to looped/cyclic peptides of protein E of SARS-CoV Urbani,[3],0.3
same,Binding of serum 2 to linear peptides of protein E of SARS-CoV Urbani,[3],0.4
same,Binding of serum 2 to looped/cyclic peptides of protein E of SARS-CoV Urbani,[3],0.3
same,Binding of serum 6 to linear peptides of protein E of SARS-CoV Urbani,[3],0.6
same,Binding of serum 6 to looped/cyclic peptides of protein E of SARS-CoV Urbani,[3],0.4
same,Binding of serum 37 to linear peptides of protein E of SARS-CoV Urbani,[3],0.8
same,Binding of serum 37 to looped/cyclic peptides of protein E of SARS-CoV Urbani,[3],0.4
same,Binding of serum 62 to linear peptides of protein E of SARS-CoV Urbani,[3],0.7
same,Binding of serum 62 to looped/cyclic peptides of protein E of SARS-CoV Urbani,[3],0.7
same,Binding of serum London to linear peptides of protein E of SARS-CoV Urbani,[3],0.5
same,Binding of serum London to looped/cyclic peptides of protein E of SARS-CoV Urbani,[3],0.4
same,Binding of serum SARS-green to linear peptides of protein E of SARS-CoV Urbani,[3],0.5
same,Binding of serum SARS-green to looped/cyclic peptides of protein E of SARS-CoV Urbani,[3],0.3
same,Binding of serum SARS-yellow to linear peptides of protein E of SARS-CoV Urbani,[3],0.2
same,Binding of serum SARS-yellow to looped/cyclic peptides of protein E of SARS-CoV Urbani,[3],0.5
FLLVTLAILTALRLC,Binding of a rabbit serum to linear peptides,[1],0.1
same,Binding of a rabbit serum to looped peptides,[1],0.0
same,Binding of Control Serum Blood-Bank to Looped peptides,[2],0.5
same,Binding of Control serum Blood-bank to linear peptides,[2],0.6
same,Binding of Control serum LUMC to linear peptides,[2],0.5
same,Binding of Control serum LUMC to looped peptides,[2],0.1
same,Binding of serum 1a to linear peptides of protein E of SARS-CoV Urbani,[3],0.6
same,Binding of serum 1a to looped/cyclic peptides of protein E of SARS-CoV Urbani,[3],0.3
same,Binding of serum 1b to linear peptides of protein E of SARS-CoV Urbani,[3],0.5
same,Binding of serum 1b to looped/cyclic peptides of protein E of SARS-CoV Urbani,[3],0.0
same,Binding of serum 2 to linear peptides of protein E of SARS-CoV Urbani,[3],0.6
same,Binding of serum 2 to looped/cyclic peptides of protein E of SARS-CoV Urbani,[3],0.5
same,Binding of serum 6 to linear peptides of protein E of SARS-CoV Urbani,[3],0.3
same,Binding of serum 6 to looped/cyclic peptides of protein E of SARS-CoV Urbani,[3],1
same,Binding of serum 37 to linear peptides of protein E of SARS-CoV Urbani,[3],0.3
same,Binding of serum 37 to looped/cyclic peptides of protein E of SARS-CoV Urbani,[3],0.6
same,Binding of serum 62 to linear peptides of protein E of SARS-CoV Urbani,[3],0.3
same,Binding of serum 62 to looped/cyclic peptides of protein E of SARS-CoV Urbani,[3],0.6
same,Binding of serum London to linear peptides of protein E of SARS-CoV Urbani,[3],0.6
same,Binding of serum London to looped/cyclic peptides of protein E of SARS-CoV Urbani,[3],1.2
same,Binding of serum SARS-green to linear peptides of protein E of SARS-CoV Urbani,[3],0.5
same,Binding of serum SARS-green to looped/cyclic peptides of protein E of SARS-CoV Urbani,[3],0.3
same,Binding of serum SARS-yellow to linear peptides of protein E of SARS-CoV Urbani,[3],0.2
same,Binding of serum SARS-yellow to looped/cyclic peptides of protein E of SARS-CoV Urbani,[3],0.5
